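Method: 48-hour compound exposure of cells in 96-well plates, five concentrations, linear interpolation of endpoints. GI50: concentration for 50% inhibition of growth. TGI denotes the concentration required for complete inhibition of growth.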
Assays:
Test in all cases: NCI-60 cell line screen, 48 h
786-0 renal = tested on: 786-0 renal
A498 renal = tested on: A498 renal
A549 NSCLC = tested on: A549 NSCLC
ACHN renal = tested on: ACHN renal
BT-549 breast = tested on: BT-549 breast
CAKI-1 renal = tested on: CAKI-1 renal
CCRF-CEM leukemia = tested on: CCRF-CEM leukemia
COLO 205 colon = tested on: COLO 205 colon
DU-145 prostate = tested on: DU-145 prostate
HCC-2998 colon = tested on: HCC-2998 colon
HCT-116 colon = tested on: HCT-116 colon
HCT-15 colon = tested on: HCT-15 colon
HL-60(TB) leukemia = tested on: HL-60(TB) leukemia
HOP-62 NSCLC = tested on: HOP-62 NSCLC
HS 578T breast = tested on: HS 578T breast
HT29 colon = tested on: HT29 colon
IGROV1 ovarian = tested on: IGROV1 ovarian
K-562 leukemia = tested on: K-562 leukemia
KM12 colon = tested on: KM12 colon
M14 melanoma = tested on: M14 melanoma
MALME-3M melanoma = tested on: MALME-3M melanoma
MCF7 breast = tested on: MCF7 breast
MDA-MB-231 breast = tested on: MDA-MB-231 breast
MDA-MB-435 = tested on: MDA-MB-435
MOLT-4 leukemia = tested on: MOLT-4 leukemia
NCI-H226 lung = tested on: NCI-H226 lung
NCI-H23 lung = tested on: NCI-H23 lung
NCI-H460 lung = tested on: NCI-H460 lung
NCI-H522 lung = tested on: NCI-H522 lung
NCI/ADR-RES ovarian = tested on: NCI/ADR-RES ovarian
OVCAR-3 ovarian = tested on: OVCAR-3 ovarian
OVCAR-4 ovarian = tested on: OVCAR-4 ovarian
OVCAR-5 ovarian = tested on: OVCAR-5 ovarian
OVCAR-8 ovarian = tested on: OVCAR-8 ovarian
PC-3 prostate = tested on: PC-3 prostate
RPMI-8226 leukemia = tested on: RPMI-8226 leukemia
RXF 393 renal = tested on: RXF 393 renal
SF-268 CNS = tested on: SF-268 CNS
SF-295 CNS = tested on: SF-295 CNS
SF-539 CNS = tested on: SF-539 CNS
SK-MEL-28 melanoma = tested on: SK-MEL-28 melanoma
SK-MEL-5 melanoma = tested on: SK-MEL-5 melanoma
SK-OV-3 ovarian = tested on: SK-OV-3 ovarian
SN12C renal = tested on: SN12C renal
SNB-19 CNS = tested on: SNB-19 CNS
SNB-75 CNS = tested on: SNB-75 CNS
SR leukemia = tested on: SR leukemia
SW-620 colon = tested on: SW-620 colon
T-47D breast = tested on: T-47D breast
TK-10 renal = tested on: TK-10 renal
UACC-257 melanoma = tested on: UACC-257 melanoma
UACC-62 melanoma = tested on: UACC-62 melanoma
UO-31 renal = tested on: UO-31 renal

Compound: CN(C)CCNc1cccc2sc3ccc(O)cc3c(=O)c12
- GI50 (786-0 renal): 2.23 µM
- TGI (786-0 renal): 6.28 µM
- GI50 (A498 renal): 10.8 µM
- TGI (A498 renal): 24.1 µM
- GI50 (A549 NSCLC): 0.643 µM
- TGI (A549 NSCLC): 5.54 µM
- GI50 (ACHN renal): 1.43 µM
- TGI (ACHN renal): 3.78 µM
- GI50 (BT-549 breast): 9.2 µM
- TGI (BT-549 breast): 23.5 µM
- GI50 (CAKI-1 renal): 2.22 µM
- TGI (CAKI-1 renal): 13.3 µM
- GI50 (CCRF-CEM leukemia): 0.777 µM
- TGI (CCRF-CEM leukemia): 6.61 µM
- GI50 (COLO 205 colon): 3.92 µM
- TGI (COLO 205 colon): 15.3 µM
- GI50 (DU-145 prostate): 1.12 µM
- TGI (DU-145 prostate): 11.2 µM
- GI50 (HCC-2998 colon): 1.56 µM
- TGI (HCC-2998 colon): 3.1 µM
- GI50 (HCT-116 colon): 2.12 µM
- TGI (HCT-116 colon): 9.68 µM
- GI50 (HCT-15 colon): 1.43 µM
- TGI (HCT-15 colon): 5.09 µM
- GI50 (HL-60(TB) leukemia): 1.53 µM
- TGI (HL-60(TB) leukemia): 3.74 µM
- GI50 (HOP-62 NSCLC): 2.29 µM
- TGI (HOP-62 NSCLC): 6.58 µM
- GI50 (HS 578T breast): 1.75 µM
- TGI (HS 578T breast): 11.8 µM
- GI50 (HT29 colon): 1.63 µM
- TGI (HT29 colon): 4.08 µM
- GI50 (IGROV1 ovarian): 3.13 µM
- TGI (IGROV1 ovarian): 12.5 µM
- GI50 (K-562 leukemia): 2.4 µM
- TGI (K-562 leukemia): 5.6 µM
- GI50 (KM12 colon): 3.22 µM
- TGI (KM12 colon): 14.3 µM
- GI50 (M14 melanoma): 1.85 µM
- TGI (M14 melanoma): 4.33 µM
- GI50 (MALME-3M melanoma): 1.59 µM
- TGI (MALME-3M melanoma): 3.13 µM
- GI50 (MCF7 breast): 1.14 µM
- TGI (MCF7 breast): 2.96 µM
- GI50 (MDA-MB-231 breast): 1.48 µM
- TGI (MDA-MB-231 breast): 3.72 µM
- GI50 (MDA-MB-435): 1.49 µM
- TGI (MDA-MB-435): 3.16 µM
- GI50 (MOLT-4 leukemia): 0.483 µM
- TGI (MOLT-4 leukemia): 2.81 µM
- GI50 (NCI-H226 lung): 5.94 µM
- TGI (NCI-H226 lung): 23.1 µM
- GI50 (NCI-H23 lung): 4.03 µM
- TGI (NCI-H23 lung): 17 µM
- GI50 (NCI-H460 lung): 0.548 µM
- TGI (NCI-H460 lung): 2.47 µM
- GI50 (NCI-H522 lung): 1.77 µM
- TGI (NCI-H522 lung): 5.66 µM
- GI50 (NCI/ADR-RES ovarian): 3.14 µM
- TGI (NCI/ADR-RES ovarian): 12.7 µM
- GI50 (OVCAR-3 ovarian): 3.28 µM
- TGI (OVCAR-3 ovarian): 11.5 µM
- GI50 (OVCAR-4 ovarian): 2.75 µM
- TGI (OVCAR-4 ovarian): 12.3 µM
- GI50 (OVCAR-5 ovarian): 7.32 µM
- TGI (OVCAR-5 ovarian): 22.8 µM
- GI50 (OVCAR-8 ovarian): 2.16 µM
- TGI (OVCAR-8 ovarian): 9.78 µM
- GI50 (PC-3 prostate): 2.44 µM
- TGI (PC-3 prostate): 13.4 µM
- GI50 (RPMI-8226 leukemia): 1.84 µM
- TGI (RPMI-8226 leukemia): 4.98 µM
- GI50 (RXF 393 renal): 1.95 µM
- TGI (RXF 393 renal): 7.38 µM
- GI50 (SF-268 CNS): 3.18 µM
- TGI (SF-268 CNS): 14.6 µM
- GI50 (SF-295 CNS): 6.53 µM
- TGI (SF-295 CNS): 22.3 µM
- GI50 (SF-539 CNS): 1.77 µM
- TGI (SF-539 CNS): 4.01 µM
- GI50 (SK-MEL-28 melanoma): 1.74 µM
- TGI (SK-MEL-28 melanoma): 3.88 µM
- GI50 (SK-MEL-5 melanoma): 1.69 µM
- TGI (SK-MEL-5 melanoma): 3.25 µM
- GI50 (SK-OV-3 ovarian): 3.36 µM
- TGI (SK-OV-3 ovarian): 14.4 µM
- GI50 (SN12C renal): 2.54 µM
- TGI (SN12C renal): 13.6 µM
- GI50 (SNB-19 CNS): 4.04 µM
- TGI (SNB-19 CNS): 17.4 µM
- GI50 (SNB-75 CNS): 2.33 µM
- TGI (SNB-75 CNS): 12.2 µM
- GI50 (SR leukemia): 1.08 µM
- TGI (SR leukemia): 4.37 µM
- GI50 (SW-620 colon): 1.16 µM
- TGI (SW-620 colon): 3.44 µM
- GI50 (T-47D breast): 2.56 µM
- TGI (T-47D breast): 12.8 µM
- GI50 (TK-10 renal): 5.58 µM
- TGI (TK-10 renal): 17.5 µM
- GI50 (UACC-257 melanoma): 1.7 µM
- TGI (UACC-257 melanoma): 3.21 µM
- GI50 (UACC-62 melanoma): 1.43 µM
- TGI (UACC-62 melanoma): 2.87 µM
- GI50 (UO-31 renal): 1.16 µM
- TGI (UO-31 renal): 3.58 µM
